Laboratory results from patent US11858878B2, “Gemini surfactant composition and method for treating subterranean rock” (KING FAHD UNIVERSITY OF PETROLEUM AND MINERALS, priority 2018, dated 2024).

Legend:
[1] = Surface tension measurements by pendant drop method in water (cmc and surface properties); format: physicochemical; conditions: for Amin (nominal surface area per molecule) / Γmax × 10^6 (highest surface access at the air-water interface): air-water interface; for πcmc (ability to lower the surface tension of water) / surface tension at all investigated concentrations (rank among surfactants) / γcmc (surface tension at cmc) / cmc (critical micelle concentration): water; for surface tension at all investigated concentrations (rank among surfactants): FIGS. 9 and 10; for γcmc (surface tension at cmc) / cmc (critical micelle concentration): pendant drop; for cmc (critical micelle concentration): intersection of two lines in plot of surface tension versus concentration
Protocol: Surface Properties. Surface tensions were identified with the help of pendant drop method at 20° C. using Biolin Scientific Attension instrument. Water was used as a solvent for all surface tension experiments. The reported data points of all surface tension measurements are average equilibrium values. The critical micelle concentration (cmc) was measured from the intersection point of two lines in the plot of surface tension versus concentration.
Surface Tension Measurements. […] The surface properties can be related to the different chain length, spacer length, spacer rigidity, and to the presence of different counterions in the gemini surfactants.
The gemini surfactant ability to lower the surface tension of water (πcmc), highest surface access (rmax) at the interface of air-water, as well as nominal surface area per molecule (Amin) was given in Table 1. The method used to calculate these properties was also given in our previous publication; Hussain S S, Animashaun M A, Kamal M S, Ullah N, Hussein I A, Sultan A S (2016) Synthesis, Characterization and Surface Properties of Amidosulfobetaine Surfactants Bearing Odd-Number Hydrophobic Tail. J Surfactants Deterg 19 (2):413-420, incorporated herein by reference in its entirety.

[2] = Long-term thermal stability: aging of aqueous solutions, followed by NMR and FTIR; format: physicochemical; conditions: aqueous solution, sealed tube, 90° C., 10 days
Protocol: Long-Term Thermal Stability. Long-term thermal stability was assessed using a novel approach based on an aging technique. Aqueous solutions of gemini surfactants (1)-(6) were aged in a sealed tube for 10 days at 90° C. NMR (^1H, ^13C) and FTIR instruments were used to identify the changes in the structure of the surfactants after aging.
The short-term and long-term thermal stability of the synthesized gemini surfactants (1)-(6) were investigated. […] (FIG. 2). The long-term thermal stability of the gemini surfactants (1)-(6) was examined using a novel approach based on aging technique where the aqueous solutions of surfactants were aged in a sealed tube at 90° C. for 10 days. NMR (^1H, ^13C) and FTIR instruments were used to study the change in the structure of the surfactants after aging at a different period. […]
Similarly, the olefinic protons in the spacer group of 10 days aged sample of gemini surfactants 1 (FIG. 3) were also detected. […]
According to ^13C NMR spectra of the 10 days aged samples of gemini surfactants (1) and (6)(FIGS. 4 and 6), the methyl [—(CH2)n—CH3)] and methylene carbon in hydrophobic tail of gemini surfactants (1) and (6) were clearly identified. […] The olefinic carbon in hydrophobic tail of gemini surfactant (6) (FIG. 6) as well as the olefinic carbon in spacer group of gemini surfactant 1 (FIG. 4) were also detected. […]

[3] = aqueous solution; cited from earlier work

Structure (SMILES): CCCCCCCCCCCC(=O)NCCC[N+](C)(C)C/C=C\C[N+](C)(C)CCCNC(=O)CCCCCCCCCCC.[Cl-].[Cl-] [Surfactant 2]
- Amin (nominal surface area per molecule) [1]: 1.05 nm^2
- Γmax × 10^6 (highest surface access at the air-water interface) [1]: 1.60 mol m^−2
- πcmc (ability to lower the surface tension of water) [1]: 33.88 mN m^−1
- surface tension at all investigated concentrations (rank among surfactants) [1]: highest surface tension
- γcmc (surface tension at cmc) [1]: 38.12 mN m^−1

Structure (SMILES): CCCCCCCC/C=C\CCCCCCCC(=O)NCCC[N+](C)(C)CCCC[N+](C)(C)CCCNC(=O)CCCCCCC/C=C\CCCCCCCC.[Br-].[Br-] [Surfactant 5]
- Amin (nominal surface area per molecule) [1]: 0.73 nm^2
- Γmax × 10^6 (highest surface access at the air-water interface) [1]: 2.26 mol m^−2
- πcmc (ability to lower the surface tension of water) [1]: 39.08 mN m^−1
- γcmc (surface tension at cmc) [1]: 32.92 mN m^−1
- cmc (critical micelle concentration) [1]: 0.000105 mol/L

Structure (SMILES): CCCCCCCC/C=C\CCCCCCCC(=O)NCCC[N+](C)(C)CCCCCC[N+](C)(C)CCCNC(=O)CCCCCCC/C=C\CCCCCCCC.[Br-].[Br-] [Surfactant 6]
- long-term thermal stability (structure change by NMR, FTIR after aging) [2]: no structural changes occurred
- Amin (nominal surface area per molecule) [1]: 0.70 nm^2
- Γmax × 10^6 (highest surface access at the air-water interface) [1]: 2.38 mol m^−2
- πcmc (ability to lower the surface tension of water) [1]: 41.66 mN m^−1
- surface tension at all investigated concentrations (rank among surfactants) [1]: least surface tension
- γcmc (surface tension at cmc) [1]: 30.34 mN m^−1
- cmc (critical micelle concentration) [1]: 7.7e-05 mol/L

Structure (SMILES): CCCCCCCC/C=C\CCCCCCCC(=O)NCCC[N+](C)(C)C/C=C/C[N+](C)(C)CCCNC(=O)CCCCCCC/C=C\CCCCCCCC.[Br-].[Br-] [Surfactant 3]
- Amin (nominal surface area per molecule) [1]: 0.86 nm^2
- Γmax × 10^6 (highest surface access at the air-water interface) [1]: 1.92 mol m^−2
- πcmc (ability to lower the surface tension of water) [1]: 36.33 mN m^−1
- γcmc (surface tension at cmc) [1]: 35.67 mN m^−1
- cmc (critical micelle concentration) [1]: 0.000158 mol/L

Structure (SMILES): CCCCCCCCCCCC(=O)NCCC[N+](C)(C)C/C=C/C[N+](C)(C)CCCNC(=O)CCCCCCCCCCC.[Br-].[Br-] [Surfactant 1]
- long-term thermal stability (structure change by NMR, FTIR after aging) [2]: no structural changes occurred
- Amin (nominal surface area per molecule) [1]: 0.91 nm^2
- Γmax × 10^6 (highest surface access at the air-water interface) [1]: 1.81 mol m^−2
- πcmc (ability to lower the surface tension of water) [1]: 35.77 mN m^−1
- γcmc (surface tension at cmc) [1]: 36.23 mN m^−1
- cmc (critical micelle concentration) [1]: 0.000256 mol/L

Structure (SMILES): CCCCCCCC/C=C\CCCCCCCC(=O)NCCC[N+](C)(C)C/C=C\C[N+](C)(C)CCCNC(=O)CCCCCCC/C=C\CCCCCCCC.[Cl-].[Cl-] [Surfactant 4]
- Amin (nominal surface area per molecule) [1]: 1.01 nm^2
- Γmax × 10^6 (highest surface access at the air-water interface) [1]: 1.64 mol m^−2
- πcmc (ability to lower the surface tension of water) [1]: 34.77 mN m^−1
- γcmc (surface tension at cmc) [1]: 37.23 mN m^−1
- cmc (critical micelle concentration) [1]: 0.000291 mol/L

Structure (SMILES): CCCCCCCCCCCCOS(=O)(=O)[O-].[Na+] [sodium dodecyl sulfate (SDS), sodium dodecyl sulfate]
- temperature of prolonged heating that causes decomposition [3]: ≥ 40 °C
